The source of these data is patent US20120329862A1, “NOVEL COMPOUND HAVING INHIBITORY EFFECT ON LIPASE” (SUNTORY HOLDINGS LIMITED, priority 2004, published 2012).

One may read the IC50 as the midpoint of a concentration-inhibition curve. The low end stands for greater potency, the high end for weaker potency.

Series [1] deals with T1, porcine pancreatic lipase (Sus scrofa, UniProt P00591).
T1 construct: purchased Sigma
T1 sequence (P00591 1-450): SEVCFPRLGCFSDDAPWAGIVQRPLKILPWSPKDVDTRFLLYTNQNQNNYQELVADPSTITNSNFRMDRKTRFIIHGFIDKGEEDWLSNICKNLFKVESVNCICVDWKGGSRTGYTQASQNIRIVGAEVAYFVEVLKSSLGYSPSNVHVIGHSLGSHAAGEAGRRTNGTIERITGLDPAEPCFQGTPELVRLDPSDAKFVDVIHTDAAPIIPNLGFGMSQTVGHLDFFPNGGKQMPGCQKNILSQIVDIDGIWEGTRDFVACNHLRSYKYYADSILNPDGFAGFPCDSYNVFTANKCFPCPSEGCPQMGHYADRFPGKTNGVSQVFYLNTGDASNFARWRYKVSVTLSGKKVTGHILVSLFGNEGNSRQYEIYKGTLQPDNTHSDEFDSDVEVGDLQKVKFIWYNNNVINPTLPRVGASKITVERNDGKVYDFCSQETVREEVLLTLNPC
Kind of series: Lipase inhibitory activity measurement (4-UMO fluorescent substrate). It counts as biochemical. As to conditions: 4-UMO substrate, pH 8.0, 25° C., 30 minutes. How it is done: Lipase activity measurement was carried out by using oleic acid ester of fluorescent 4-methylumbelliferone (4-UMO) as a substrate, and measuring the fluorescence of 4-methylumbelliferone produced by reaction.
In the measurement, 13 mM Tris-HCl containing 150 mM NaCl and 1.36 mM CaCl2 was used as a buffer (pH 8.0). Substrate 4-UMO (Sigma) was prepared as 0.1M solution in DMSO and diluted 1000-fold with the buffer mentioned above. Similarly, lipase (porcine pancreatic lipase (Sigma)) was prepared as 400 U/ml solution in the buffer mentioned above and used in enzymatic measurement.
50 μl of the 4-UMO buffer solution and 25 μl of distilled water (or sample solution) were placed in a 96-well microplate and mixed at 25° C., followed by adding 25 μl of the lipase buffer solution to start enzyme reaction. After 30 minutes of reaction, 100 μl of 0.1M citric acid buffer (pH 4.2) was added to terminate the reaction, and the fluorescence of 4-methylumbelliferone (excitation wavelength: 355 nm, fluorescence wavelength: 460 nm) produced by the reaction was measured with a fluorescence plate reader (Labsystems, Fluoroskan Asent CF).
An inhibitory activity of the sample was determined as IC50, or the amount of the sample which gave […] of inhibition compared to the activity of control (distilled water).

Series [2] is described as follows: Solubility of purified compound. It counts as physicochemical. As to conditions: purified white powder. From the text:
The product obtained from oxidative polymerization reaction may be purified by conventional methods such as chromatography. […] Therefore, this compound is suitable for use in, for example, foods and/or beverages, and pharmaceutical drugs as an active lipase inhibitory ingredient for suppressing absorption of dietary lipids, thereby suppressing the rise of blood triglyceride or decreasing increased blood triglyceride.

For the compound “epigallocatechin-3-O-gallate [EGCG, reference compound]”, in series [1], the “lipase inhibitory activity IC50” value is 0.16 µg/mL. Further, it took 349 nM to reach half-maximal inhibition in series [1] (value in brackets) (IC50).
On to `O=C(O[C@@H]1Cc2c(O)cc(O)cc2O[C@@H]1C1=CC(=O)C2(O)Oc3c(O)c(O)cc([C@H]4Oc5cc(O)cc(O)c5C[C@H]4OC(=O)c4cc(O)c(O)c(O)c4)c3C12)c1cc(O)c(O)c(O)c1` (some centres unmarked) [OTNG, oolongtheanin-3′-O-gallate], for which the figures for the IC50 in series [1] and in series [1] (value in brackets) were 67.8 nM and 68 nM, respectively. For the same compound, the solubility entry in series [2] was “soluble in water, methanol and DMSO”.
